Earlier results on two compounds are cited in patent US9782413B2, “Composition for treatment of essential thrombocythemia” (AOP ORPHAN PHARMACEUTICALS AG, priority 2010, dated 2017).

Data set [1] deals with phosphodiesterase (PDE) 3.
The conditions of data set [2]: after anagrelide administration.

Molecules are shown by their SMILES.

In the case of `O=C1NC2=Nc3ccc(Cl)c(Cl)c3CN2C1O` (stereo not shown) [3-hydroxyanagrelide], the “phosphodiesterase (PDE) 3 inhibitory activity” value in data set [1] is reported as “considerably more potent than anagrelide”. Besides, in data set [2], the “delay of peak plasma level compared to the parent drug” value was “about 45 mm”.

For `NC1=Nc2ccc(Cl)c(Cl)c2CN1` [RL 603, 2-amino-5,6-dichloro-3,4-dihydroquinazolone], in data set [1], the “phosphodiesterase (PDE) 3 inhibitory activity” value is on record as “lacks these activities”. In addition, the “platelet reduction in vivo” value in the data set with platelets is “lacks these activities”.
